Reference: patent publication US7652044B2, “P-38 inhibitors” (Novartis A.G., priority 2003, dated 2010)

The compounds below were run against T1, p38α kinase (Homo sapiens, UniProt Q16539) (assay: p38α assay (enzyme inhibition)).
T1 construct: purchased Upstate
Type: biochemical
Description: Compound inhibitory activity was measured in a radioactive enzyme assay. The buffer composition was adopted from Lisnock et al (Biochemistry, 1998, vol. 37, pp 16573-16581). Peptide substrate was selected from Chen et al (Biochemistry, 2000, vol. 39, 2079-2087). The concentrations of p38α, [γ-^33P-ATP] and peptide were equal 1 nM, 85 uM and 250 uM, respectively. Incorporation of ^33P into peptide was measured using absorption on filtermats with subsequent wash with 100 mM phosphoric acid followed by ethanol.
cDNAs of human p38α and β were cloned by PCR. The α and β cDNAs were subcloned into DEST2 plasmid (Gateway, InVitrogen). His6-p38 fusion protein was expressed in E. coli and purified from bacterial lysates by affinity chromatography using Ni^+2-NTA-agarose. His6-p38 protein was activated by incubating with constitutively active MKK6. Active p38 was separated from MKK6 by affinity chromatography. Constitutively active MKK6 was generated in a manner similar to Raingeaud et al. (Mol. Cell. Biol., 1247-1255 (1996)).
The p38α assay employed is based on measurement of ADP released in the reaction of interest through NADH oxidation obtained by coupling with pyruvate kinase and lactate dehydrogenase reactions. The assays were performed in 384-well UV-plates. The final volume was 25 uL prepared from the addition of 2.5 uL compound dissolved in 10% DMSO, 17.5 uL of assay buffer and 5 uL of ATP. Assay buffer contains the following reagents to give final concentration in the assay: 25 mM HEPES, 20 mM 2-glycerophosphate, pH 7.6, 10 mM MgCl2, 0.1 mM sodium orthovanadate, 0.5 mM phosphoenolpyruvate, 0.12 mM NADH, 3.1 mg/ml LDH, 6.67 mg/ml pyruvate kinase, 0.25 mM peptide substrate, 2 mM DTT, 0.005% Tween 80 and 20 nM p38α kinase from Upstate. Test compounds are preincubated with p38α kinase for 60 min and the reaction started by addition of ATP to 0.15 mM final concentration. Reaction rates were measured at 340 nm using SpectraMax plate-reading spectrophotometer for 10 min at 37° C. Inhibition data were analyzed by non-linear least-squares regression using SigmaPlot.

T1 sequence (Q16539 whole entry): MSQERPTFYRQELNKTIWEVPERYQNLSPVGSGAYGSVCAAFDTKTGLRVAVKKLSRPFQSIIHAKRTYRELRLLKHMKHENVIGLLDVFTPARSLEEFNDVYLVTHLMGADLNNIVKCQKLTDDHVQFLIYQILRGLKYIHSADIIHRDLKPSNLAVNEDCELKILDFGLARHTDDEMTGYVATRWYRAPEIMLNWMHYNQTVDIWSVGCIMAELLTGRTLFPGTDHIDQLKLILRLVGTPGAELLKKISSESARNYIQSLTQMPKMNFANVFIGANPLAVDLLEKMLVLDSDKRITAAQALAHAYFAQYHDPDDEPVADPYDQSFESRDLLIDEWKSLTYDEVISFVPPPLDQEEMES

Compound | IC50 [nM]
Cc1ccc(C(=O)NC2CC2)cc1Nc1nc(-c2ccccc2)cs1 [Compound 3, N-Cyclopropyl-4-methyl-3-(4-phenyl-thiazol-2-ylamino)-benzamide] | > 100
Cc1ccc(C(=O)NC2CC2)cc1Nc1ncc(C(=O)NCc2ccccc2)s1 [Compound 26, 2-(5-Cyclopropylcarbamoyl-2-methyl-phenylamino)-thiazole-5-carboxylic acid benzylamide] | < 50
Cc1cccc(-c2nc(Nc3cc(C(=O)NC4CC4)ccc3C)sc2C(=O)NCc2ccccc2)c1 [Compound 28-6, 2-(5-Cyclopropylcar-bamoyl-2-methyl-phenylamino)-4-m-tolyl-thiazole-5-carboxylic acid benzylamide] | 50 to 100
Cc1ccc(C(=O)NC2CC2)cc1Nc1nc(-c2cccc(CN)c2)c(C(=O)NCc2ccccc2)s1 [Compound 28-24, 4-(3-Aminomethyl-phenyl)-2-(5-cyclo-propylcarbamoyl-2-methylphenylamino) thiazole-5-carboxylic acid benzylamide] | < 50

The remaining lines, values ahead:

IC50 [nM] | Compound
< 50 | CONC(=O)c1ccc(C)c(Nc2nnc(-c3ccccc3)[nH]2)c1 [Compound 1, N-methoxy-4-methyl-3-(5-phenyl-4H-[1,2,4]triazol-3-ylamino)-benzamide]
< 50 | CONC(=O)c1ccc(C)c(Nc2noc(-c3ccccc3)n2)c1 [Compound 2, N-methoxy-4-methyl-3-(5-phenyl-[1,2,4]oxadiazol-3-ylamino)-benzamide]
50 to 100 | Cc1ccc(C(=O)NC2CC2)cc1Nc1nc(-c2cccc(C#N)c2)c(C(=O)NCc2ccccc2)s1 [Compound 28-9, 4-(3-Cyano-phenyl)-2-(5-cyclopropyl-carbamoyl-2-methyl-phenylamino)thia-zole-5-carboxylic acid benzylamide]
> 100 | Cc1ccc(C(=O)NC2CC2)cc1Nc1nc(-c2ccc3[nH]ccc3c2)c(C(=O)NCc2ccccc2)s1 [Compound 28-40, 2-(5-Cyclopropylcar-bamoyl-2-methyl-phenylamino)-4-(1H-indol-5-yl)-thiazole-5-carboxylic acid benzylamide]
